From patent publication US20070249691A1, “Mercaptoimidazoles as Ccr2 Receptor Antagonists” (priority 2004, published 2007)

Tests used:
[1] = target: T1, CCR2B (Homo sapiens, UniProt P41597); experiment: 125I-MCP-1 radioligand binding assay, membranes from CCR2B-transfected CHO cells; details: competition with 0.15 nM 125I-MCP-1, CCR2B-transfected CHO cell membranes, Cheng-Prusoff
T1 construct: expressed in transfected cells; host or cells: CHO cells (membrane preparation)
T1 sequence (P41597 1-360 isoform P41597-2): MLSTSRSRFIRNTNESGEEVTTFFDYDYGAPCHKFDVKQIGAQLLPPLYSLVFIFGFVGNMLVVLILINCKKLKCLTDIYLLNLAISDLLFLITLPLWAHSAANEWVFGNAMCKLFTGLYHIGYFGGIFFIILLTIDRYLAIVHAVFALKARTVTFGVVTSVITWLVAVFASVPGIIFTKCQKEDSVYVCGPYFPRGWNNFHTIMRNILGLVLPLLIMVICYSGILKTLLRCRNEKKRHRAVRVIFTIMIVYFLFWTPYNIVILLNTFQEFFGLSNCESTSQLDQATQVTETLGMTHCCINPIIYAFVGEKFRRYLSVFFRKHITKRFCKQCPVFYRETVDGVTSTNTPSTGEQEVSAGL
Procedure: Radioligand Binding Assay.
^125I-MCP-1 binding assays were performed in 96:well plates with 40 μg of protein per well. Compounds were dissolved and diluted in DMSO to 100× dilutions. A 10× concentration range of compounds was prepared in binding buffer (10% DSMO). Competition binding assays contained the following components in a total volume of 250 μl: 25 μl of the appropriate compound dilution (final concentration of 1% DMSO), 200 μl membranes from CCR2B-transfected CHO cells dissolved in binding buffer and 25 μl ^125I-MCP-1 (Bolton and Hunter labeled, Amersham, specific activity=2000 Ci/mmol, 0.15 nM final). Binding buffer was composed of 25 mM HEPES, 5 mM MgCl2, 1 mM CaCl2, 0.5% protease-free bovine serum albumin, pH 7.4. After 90 minutes incubation at 25° C. membranes were harvested on GF/B filters—presoaked in 0.5% polyethylenimine, followed by washing with buffer containing 25 mM HEPES, 5 mM MgCl2, 1 mM CaCl2, 5 mM NaCl, pH 7.4. Filter bound radioactivity was determined by liquid scintillation counting. EC50 values (μM) and Ki values (μM) were calculated. The ED50 value indicates the concentration of the test compound that competes with MCP-1 for half of the specific binding sites; the Ki value indicates the equilibrium dissociation constant, i.e. the concentration of the test compound that will bind to half of the binding sites at equilibrium in the absence of radioligand or other competitors. EC50 values and Ki values were calculated using non-linear regression in Graphpad Prism. Prism calculates the Ki or affinity of the receptor for the competing drug using the equation of Cheng and Prusoff (Biochem. Pharmacol. 1973, 22: 3099-3108). A low Ki indicates a high affinity of the receptor for the test compound. [formula] wherein Kd describes the affinity of the radioligand for the receptor, i.e. the concentration of the radioligand that will bind to half of the binding sites at equilibrium in the absence of competitors.
Table 6 lists Ki values (μM) obtained in the above-described test for compounds of formula (I).

[2] = target: T2, CCR2 (Homo sapiens, UniProt P41597); experiment: Chemotactic response of human PBMC to MCP-1; format: cell-based; parameters: Mononuclear cells from human heparinized peripheral blood (PBMC) were isolated; endogenous in cells; host or cells: human peripheral blood mononuclear cells; details: inhibition of migration of human PBMC to 30 ng/ml hMCP-1, 105 minutes
T2 sequence (P41597 1-360 isoform P41597-2): T1 sequence (P41597 1-360 isoform P41597-2)
Procedure: The CCR2 antagonistic activity of the compounds of the present invention can also be determined by measuring the effect of the compounds on the chemotactic response of cells in the presence of a chemokine, such as for example MCP-1.
Mononuclear cells from human heparinized peripheral blood (PBMC) were isolated using Ficoll-Paque gradient centrifugation (Amersham Biosciences). Assays of chemotactic responsiveness were performed using disposable 96-well chemotaxis chambers (ChemoTx, Neuro Probe) with 5-μm pore size polycarbonate (PVP-free) filter membranes. Mononuclear cells were fluorescently labeled with 5 μg/ml Calcein-AM (Molecular Probes, Eugene, Oreg.) at 37° C. for 30 minutes. Labeled cells were washed twice and resuspended at 5×10^6 cells/ml in Hanks' Balanced Salt Solution (Gibco BRL) supplemented with 0.2% bovine serum albumin. Subsequently, cells were pre-incubated for 10 minutes at room temperature with serial dilutions of the compounds in DMSO (dimethylsulfoxide) (final DMSO concentration of 0.2%). Bottom wells of the chemotaxis chamber were loaded with 28 μl medium containing 30 ng/ml recombinant hMCP-1 (R&D) or buffer only. Pre-treated cells (100.000 cells) were added in triplicate to the topside of the filter (20 μl) and incubated at 37° C. in humidified air containing 5% CO2. After 105 minutes incubation, the non-migrated cells were removed from the top of the filter by gently wiping the filter with a tissue. The migrated cells were measured using a fluorescent plate reader (λexcitation=485 nm; λemission=538 nm). The chemotactic response can be expressed as chemotactic index (C.I.), being the ratio of the means of migrated cells in the presence of MCP-1 and the means of migrated cells in the absence of chemokine. Percentage inhibition was calculated using the formula: [formula]
with Fsample, the fluorescence of the cells pre-incubated with 10, 1, 0.1, 0.01 or 0.001 μM compound and migrated to 30 ng/ml MCP-1 in the bottom wells; FMCP-1, the fluorescence of the cells pre-incubated with buffer-0.2% DMSO and migrated to 30 ng/ml MCP-1 and Fbuffer, the fluorescence of cells pre-incubated with buffer-0.2% DMSO and spontaneous migrated to buffer in the bottom wells. Table 7 lists the IC50 values (μM) obtained in the above-described test for compounds of formula (I). Assays were run in triplicate and repeated 2-7 times.

[3] = target: T2, CCR2; experiment: Inhibition of MCP-1 induced Ca-flux in human THP-1 cells; format: cell-based; parameters: host or cells: THP-1 (human monocytic cell line); details: -log IC50 (molar), inhibition of specific MCP-1 (10^-7 M hMCP-1) induced Ca2+ flux, FLIPR
Procedure: Inhibition of MCP-1 Induced Ca-Flux in Human THP-1 Cells
MCP-1 binding to the CCR2 receptor induces a rapid and transient intracellular release of Ca^2+ (secondary messenger) in several cell lines (Charo et al, PNAS 1994). Free Ca^2+ levels can be measured using a Ca^2+ sensitive dye. When the CCR2 receptor is blocked with a CCR2 receptor antagonist, the MCP-1 induced release of Ca^2+ is inhibited.
Human THP-1 cells (monocytic cell line, ATCC TIB-202) were cultured in RPMI 1640 medium supplemented with 10% fetal calf serum (FCS), 1% L-Glutamine, penicillin (50 U/ml) and streptomycin (50 μg/ml) (all GIBCO BRL, Gent). After centrifugation, cells were loaded for 30 minutes with the Ca^2+ sensitive fluorescent dye Fluo-3 μM (Molecular Probes, Leiden, Netherlands) (2 million cells/ml in RPMI medium containing 4 μM Fluo-3 μM, 20 mM HEPES, 0.1% Bovine Serum Albumin (BSA) and 5 mM probenecid). Excess dye was removed by 3-fold washing with buffer (5 mM HEPES, 140 mM NaCl, 1 mM MgCl2, 5 mM KCl, 10 mM glucose, 2.5 mM probenecid, 1.25 mM CaCl2, 0.1% BSA; all further incubations were done in this buffer). Cells were plated at a density of 150 000 cells/well in dark-wall 96-well plates (Costar, Cambridge, Mass.) and sedimented by centrifugation (1 minute). The cells were pre-incubated for 20 minutes with test compound. Then, 10^−7 M hMCP-1 (Bachem, Bubendorf, Switserland) was added. Changes in intracellular free Ca^2+ concentration were measured using the Fluorescent Imaging Plate Reader (FLIPR, Molecular Devices, Munchen, Germany). Fluorescence was recorded every second from 10 seconds before the addition of the MCP-1 till 2 minutes after the addition (first minute: 60 records with 1 second intervals, second minute 20 records with 3 second intervals). The maximal fluorescence obtained during this time frame was used for further calculations.
Table 5 reports pIC50 values obtained in the above-described test for compounds of formula (I). pIC50 defines—log IC50 wherein IC50 is the molar concentration of the test compound which inhibits 50% of specific MCP-1 induced Ca^2+ flux.

melting point	Ki [1]	IC50 [2]	IC50 [3]	Compound
–	30 nM	108 nM	–	CCC(c1ccc(F)c(F)c1)n1c(C(=O)OC)c(-c2ccno2)[nH]c1=S (stereo in doubt) [Compound 53, (S)-3-[1-(3,4-difluoro-phenyl)propyl]-5-isoxazol-5-yl-2-thioxo-2,3-dihydro-1H-imidazole-4-carboxylic acid methyl ester]
–	–	–	13.2 nM	CCC(c1ccc(Cl)c(Cl)c1)n1c(C(=O)OC)c(-c2ccno2)[nH]c1=S (stereo not drawn) [Compound 25]
–	50 nM	–	7.94 nM	CCC(c1ccc(Cl)c(Cl)c1)n1c(C(=O)OC)c(-c2ccno2)[nH]c1=S (stereo not drawn) [Compound 26]
–	–	–	33.1 nM	CCC(c1ccc(Cl)c(Cl)c1)n1c(C(=O)OC)c(-c2nnc(C)o2)[nH]c1=S (stereo not drawn) [Compound 27]
–	10 nM	367 nM	15.8 nM	CCC(c1ccc(Cl)c(Cl)c1)n1c(C(=O)OC)c(-c2cc(C)on2)[nH]c1=S (stereo not drawn) [Compound 28]
–	70 nM	214 nM	75.9 nM	CCC(c1ccc(Cl)c(Cl)c1)n1c(C(=O)OC)c(-c2ccccc2)[nH]c1=S (stereo not drawn) [Compound 31]
–	–	–	12.6 nM	CCC(c1ccc(Cl)c(Cl)c1)n1c(C(=O)OC)c(-c2ccncc2)[nH]c1=S (stereo not drawn) [Compound 33]
–	–	–	25.1 nM	CCC(c1ccc(Cl)c(Cl)c1)n1c(C(=O)OC)c(-c2cnccn2)[nH]c1=S (stereo not drawn) [Compound 34]
–	70 nM	244 nM	39.8 nM	CCC(c1ccc(Cl)c(Cl)c1)n1c(C(N)=O)c(-c2nnc(C)o2)[nH]c1=S (stereo not drawn) [Compound 36]
–	30 nM	–	7.94 nM	CC[C@H](c1ccc(F)c(F)c1)n1c(C(=O)OC)c(-c2ccno2)[nH]c1=S [Compound 43]
–	–	–	12.6 nM	CCCC(c1ccc(F)c(F)c1)n1c(C(=O)OC)c(-c2ccno2)[nH]c1=S (stereo not drawn) [Compound 48]
–	–	–	25.1 nM	CCCC(c1ccc(F)c(F)c1)n1c(C(=O)OC)c(-c2cc(C)on2)[nH]c1=S (stereo not drawn) [Compound 49]
102.8 to 102.9 °C	–	–	–	COCC(c1ccc(F)c(F)c1)n1c(C(=O)OC)c(-c2nnc(C)o2)[nH]c1=S (stereo not drawn) [Compound 50]
–	–	474 nM	39.8 nM	CCC(c1ccc(Cl)c(Cl)c1)n1c(C(=O)OC)c(-c2cccnc2)[nH]c1=S (stereo not drawn) [Compound 51]

The next lines start with the compound.

Compound	melting point	Ki [1]	IC50 [2]	IC50 [3]
CCC(c1ccc(Cl)c(Cl)c1)n1cc(-c2sc(N)nc2C)nc1S.Cl (stereo not drawn)	301.8 to 303.3 °C	–	–	–
CCC(c1ccc(Cl)c(Cl)c1)n1c(C(=O)OC)c(-c2cccs2)[nH]c1=S (stereo not drawn) [Compound 6]	–	–	–	55 nM
CCC(c1ccc(F)c(F)c1)n1c(S)nc(-c2ccno2)c1C(=O)OC (stereo not drawn) [Compound 7]	–	–	–	11.7 nM
CCC(c1ccc(Cl)c(Cl)c1)n1c(S)nc(-c2nnco2)c1C(=O)OC (stereo not drawn) [Compound 9]	–	–	–	35.5 nM
CCC(c1ccc(F)c(F)c1)n1c(C(N)=O)c(-c2nnc(C)o2)[nH]c1=S (stereo not drawn) [Compound 13]	228 to 229 °C	300 nM	–	–
CCC(c1ccc(F)c(F)c1)n1c(C(=O)NCCO)c(-c2nnc(C)o2)[nH]c1=S (stereo not drawn) [Compound 14]	165 to 166 °C	–	–	–
CCC(c1ccc(F)c(F)c1)n1c(S)nc(-c2cc(C)on2)c1C(=O)OCCOC (stereo not drawn) [Compound 16]	–	–	–	31.6 nM
CCC(c1ccc(Cl)c(Cl)c1)n1c(C(=O)O)c(-c2cccs2)[nH]c1=S (stereo not drawn) [Compound 23]	–	–	24 nM	–
CCC(c1ccc(Cl)c(Cl)c1)n1c(C(=O)OC)c(-c2snnc2C)[nH]c1=S (stereo not drawn) [Compound 24]	–	–	–	72.4 nM
CCC(c1ccc(Cl)c(Cl)c1)n1c(C(=O)OC)c(-c2ccccn2)[nH]c1=S (stereo not drawn) [Compound 32]	–	–	–	25.1 nM
CCCC(c1ccc(Cl)c(Cl)c1)n1c(C(=O)OC)c(-c2nnc(C)o2)[nH]c1=S (stereo not drawn) [Compound 40]	–	–	–	43.7 nM
